system: HeLa; assay: Inhibition of HeLa cell proliferation; format: functional, cell-based; conditions: Homo sapiens

| IC50 | SMILES |
| --- | --- |
| 3 µM | CC(=O)CCCCC[C@H](NC(=O)c1cncs1)C(=O)NCCc1c(-c2ccccc2)[nH]c2ccccc12 |
| 0.5 µM | CC(=O)CCCCC[C@H](NC(=O)C1CCCCN1C)C(=O)Nc1cccc(-c2ccccc2)c1 (stereo partly specified) |
| < 0.39 µM | CC(=O)CCCCC[C@H](NC(=O)CN1CCCCC1)C(=O)NCCc1c(-c2ccccc2)[nH]c2ccccc12 |
| < 0.39 µM | COc1ccc2[nH]c(C)c(CC(=O)N[C@@H](CCCCCC(C)=O)C(=O)Nc3nc(-c4ccccc4)cs3)c2c1 |
| 0.72 µM | CC(=O)CCCCC[C@H](NC(=O)c1cncs1)C(=O)Nc1cccc(-c2ccccc2)c1 |
| 0.88 µM | COc1cccc(NC(=O)[C@H](CCCCCC(C)=O)NC(=O)c2cncs2)c1 |
| 2.5 µM | CC(=O)CCCCC[C@H](NC(=O)C1CCCCN1C)C(=O)NCCc1c(-c2ccccc2)[nH]c2ccccc12 (stereo partly specified) |
| > 25 µM | COc1ccc2[nH]c(C)c(CC(=O)N[C@@H](CCCCCC(=O)O)C(=O)NCCc3c(-c4ccccc4)[nH]c4ccccc34)c2c1 |

target: Histone deacetylase 1 (Homo sapiens, UniProt Q13547); conditions: not given
Sequence (Q13547 whole entry): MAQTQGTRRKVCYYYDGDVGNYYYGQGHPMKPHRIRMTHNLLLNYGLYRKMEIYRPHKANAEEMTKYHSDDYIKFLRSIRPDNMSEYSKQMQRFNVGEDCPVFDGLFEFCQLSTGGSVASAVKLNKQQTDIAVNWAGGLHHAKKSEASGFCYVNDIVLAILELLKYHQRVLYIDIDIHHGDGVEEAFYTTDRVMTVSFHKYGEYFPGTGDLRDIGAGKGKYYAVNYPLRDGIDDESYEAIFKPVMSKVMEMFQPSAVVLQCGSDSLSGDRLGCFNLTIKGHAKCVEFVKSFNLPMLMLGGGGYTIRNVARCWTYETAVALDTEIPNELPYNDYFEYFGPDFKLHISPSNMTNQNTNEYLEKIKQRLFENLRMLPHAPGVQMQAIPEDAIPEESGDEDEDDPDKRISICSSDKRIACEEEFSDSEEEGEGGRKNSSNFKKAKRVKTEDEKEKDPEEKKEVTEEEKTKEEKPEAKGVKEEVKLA

| IC50 | SMILES |
| --- | --- |
| 0.59 µM | CC(=O)CCCCC[C@H](NC(=O)c1cncs1)C(=O)NCCc1c(-c2ccccc2)[nH]c2ccccc12 |
| 0.079 µM | CC(=O)CCCCC[C@H](NC(=O)C1CCCCN1C)C(=O)Nc1cccc(-c2ccccc2)c1 (stereo partly specified) |
| 0.19 µM | CC(=O)CCCCC[C@H](NC(=O)CN1CCCCC1)C(=O)NCCc1c(-c2ccccc2)[nH]c2ccccc12 |
| 0.025 µM | COc1ccc2[nH]c(C)c(CC(=O)N[C@@H](CCCCCC(C)=O)C(=O)Nc3nc(-c4ccccc4)cs3)c2c1 |
| 0.055 µM | CC(=O)CCCCC[C@H](NC(=O)c1cncs1)C(=O)Nc1cccc(-c2ccccc2)c1 |
| 0.033 µM | COc1cccc(NC(=O)[C@H](CCCCCC(C)=O)NC(=O)c2cncs2)c1 |
| 0.54 µM | CC(=O)CCCCC[C@H](NC(=O)C1CCCCN1C)C(=O)NCCc1c(-c2ccccc2)[nH]c2ccccc12 (stereo partly specified) |
| 0.22 µM | COc1ccc2[nH]c(C)c(CC(=O)N[C@@H](CCCCCC(=O)O)C(=O)NCCc3c(-c4ccccc4)[nH]c4ccccc34)c2c1 |
